The target in the assay is Ribose-phosphate pyrophosphokinase (Escherichia coli) (UniProt P0A717). Put plainly: Inhibitory concentration against Escherichia coli Pyrophosphate Synthetase (PRPP).

What is called IC50 is the concentration that inhibits the measured activity by half. The low end stands for greater potency, the high end for weaker potency.

Ribose-phosphate pyrophosphokinase (Escherichia coli), sequence (P0A717 whole entry, looked up): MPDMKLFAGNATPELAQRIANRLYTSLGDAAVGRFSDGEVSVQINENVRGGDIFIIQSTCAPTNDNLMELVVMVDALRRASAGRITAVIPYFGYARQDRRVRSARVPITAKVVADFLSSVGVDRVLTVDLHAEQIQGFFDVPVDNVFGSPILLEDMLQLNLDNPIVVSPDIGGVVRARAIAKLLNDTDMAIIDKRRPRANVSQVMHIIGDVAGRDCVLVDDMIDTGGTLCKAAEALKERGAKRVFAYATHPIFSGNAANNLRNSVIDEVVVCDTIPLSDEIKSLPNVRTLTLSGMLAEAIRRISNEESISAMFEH

`Nc1ncnc2c1ncn2[C@H]1CC[C@@H](CCOP(=O)(O)O)C1` [Phosphoric acid mono-{2-[(1R,3S)-3-(6-amino-purin-9-yl)-cyclopentyl]-ethyl} ester] came in with a half-inhibitory concentration (IC50) of 600 µM.
The result for `Nc1ncnc2c1ncn2[C@H]1CC[C@@H](CC(F)(F)P(=O)(O)O)C1` [{2-[(1R,3S)-3-(6-Amino-purin-9-yl)-cyclopentyl]-1,1-difluoro-ethyl}-phosphonic acid] reads 1000 µM.
As to `Nc1ncnc2c1ncn2[C@@H]1O[C@H](COP(=O)(O)O)[C@H](O)[C@@H]1O` [Phosphoric acid mono-[(2R,3R,4S,5R)-5-(6-amino-purin-9-yl)-3,4-dihydroxy-tetrahydro-furan-2-ylmethyl] ester], inhibition was half-maximal at 5100 µM (IC50).
The molecule `Nc1ncnc2c1ncn2CCOCP(=O)(O)O` [9-[2-phosphonomethoxyethyl]adenine] returned an IC50 of 3200 µM.

Source of the values: BindingDB's records for doi:10.1016/S0960-894X(00)80413-8 (1992).
